Data on 22 molecules can be found in ChEMBL document CHEMBL3112457, “Inhibition of hypoxia-inducible factor prolyl hydroxylase domain oxygen sensors: tricking the body into mounting orchestrated survival and repair responses” (J Med Chem, 2013).

Assay [1] concerns the target T1, Egl nine homolog 1 (Homo sapiens, UniProt Q9GZT9). Put plainly: Inhibition of FLAG-tagged full length PHD2 (unknown origin) expressed in Sf9 cells using HIF-1alpha peptide as substrate preincubated for 30 mins followed by substrate addition measured after 2 hrs by HTRF assay in presence of 2-oxoglutarate.
Target sequence in this assay (Q9GZT9 whole entry): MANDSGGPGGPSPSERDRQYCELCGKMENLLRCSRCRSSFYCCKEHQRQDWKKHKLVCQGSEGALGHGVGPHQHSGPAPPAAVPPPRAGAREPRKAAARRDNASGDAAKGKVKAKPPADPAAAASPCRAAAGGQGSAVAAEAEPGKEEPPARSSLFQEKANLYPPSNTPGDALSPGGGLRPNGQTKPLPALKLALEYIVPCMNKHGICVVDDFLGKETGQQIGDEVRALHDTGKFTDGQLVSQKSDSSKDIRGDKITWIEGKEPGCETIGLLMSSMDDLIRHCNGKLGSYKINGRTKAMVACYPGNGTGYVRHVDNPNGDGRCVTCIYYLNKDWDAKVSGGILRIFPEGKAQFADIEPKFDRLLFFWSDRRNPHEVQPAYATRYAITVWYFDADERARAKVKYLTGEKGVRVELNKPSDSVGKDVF
Assay [2] deals with T2, Prolyl hydroxylase EGLN3 (Homo sapiens, UniProt Q9H6Z9). Put plainly: Inhibition of PHD3 in human Hep3B cells assessed as stimulation of EPO release after 48 hrs by ELISA. In kind it is cell-based, Hep 3B2.
The target in assay [3] is T1, Egl nine homolog 1. Put plainly: Inhibition of HIF-PH2 (unknown origin) expressed in insect Hi5 cells using [methoxycoumarin]-DLDLEALAPYIPADDDFQL-amide as substrate at 22.2 uM by [14]CO2 capture assay relative to control. To be noted: BTI-TN-5B1-4.
Target sequence in this assay (Q9GZT9 2-426 limits assumed): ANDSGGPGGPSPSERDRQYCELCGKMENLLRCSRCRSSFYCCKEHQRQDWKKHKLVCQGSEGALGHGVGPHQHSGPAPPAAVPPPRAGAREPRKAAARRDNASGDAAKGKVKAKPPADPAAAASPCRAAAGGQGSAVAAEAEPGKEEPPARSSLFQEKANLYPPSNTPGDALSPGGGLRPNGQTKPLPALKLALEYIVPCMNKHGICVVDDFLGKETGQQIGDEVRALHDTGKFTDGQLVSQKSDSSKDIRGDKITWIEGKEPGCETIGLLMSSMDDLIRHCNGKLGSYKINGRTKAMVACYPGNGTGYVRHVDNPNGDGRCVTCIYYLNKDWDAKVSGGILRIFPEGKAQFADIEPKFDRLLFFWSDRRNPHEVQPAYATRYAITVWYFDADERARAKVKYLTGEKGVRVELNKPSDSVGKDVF
The target of assay [4] is T2, Prolyl hydroxylase EGLN3. Put plainly: Inhibition of 6His-tagged PHD3 (1 to 239) (unknown origin)-mediated Cy5CODD hydroxylation expressed in Escherichia coli preincubated for 3 mins followed by substrate addition measured after 30 mins.
For the next assay, the system named is Hep 3B2. Put plainly: Inhibition of prolyl hydroxylase in human Hep3B cells assessed as stimulation of EPO release at 100 uM after 24 hrs relative to control. It is filed as cell-based. Also noted: scale not given: the % may be the effect or the level left.
Assay [5] addresses T2, Prolyl hydroxylase EGLN3. Put plainly: Inhibition of 6His-tagged PHD3 (1 to 239) (unknown origin)-mediated Cy5CODD hydroxylation expressed in Escherichia coli after 30 mins.
The target in assay [6] is T1, Egl nine homolog 1. Briefly: Inhibition of PHD2 (unknown origin) using P564 HIFlalpha as substrate after 1 hr by TR-FRET assay. On the technique in general: Time-resolved FRET reads energy transfer from a long-lived donor to a nearby acceptor.
Target sequence in this assay (Q9GZT9 whole entry): as the sequence (Q9GZT9 whole entry) above
For assay [7], the system named is Homo sapiens. Put plainly: Antianemic activity in chronic kidney disease patient assessed as increase in hemoglobin level at 625 mg, po administered twice weekly for 15 weeks (reference value: 0.2 g/dl). In kind it is functional.
The subject of assay [8] is Homo sapiens. Put plainly: Increase in plasma EPO level in anephric end stage renal disease patient at 20 mg/kg, po administered for 7 days relative to control. In kind it is functional.
In assay [9] the test system is Homo sapiens. Briefly: Antianemic activity in chronic kidney disease patient assessed as increase in hemoglobin level at 375 mg, po administered twice weekly for 15 weeks measured after 4 weeks relative to control. In kind it is functional.
Assay [10] concerns Homo sapiens. Put plainly: Increase in plasma EPO level in human at 20 mg/kg, po administered for 7 days relative to control. In kind it is functional.
Assay [11] relates to Homo sapiens. Put plainly: Antianemic activity in chronic kidney disease patient assessed as increase in hemoglobin level at 1250 mg, po administered twice weekly for 15 weeks measured after 4 weeks relative to control. It is filed as functional.
The test system of assay [12] is Homo sapiens. Briefly: Antianemic activity in chronic kidney disease patient assessed as increase in hemoglobin level at 375 mg, po administered twice weekly for 15 weeks (reference value: 0.2 g/dl). It is filed as functional.
In assay [13] the test system is Homo sapiens. Put plainly: Antianemic activity in chronic kidney disease patient assessed as increase in hemoglobin level at 1250 mg, po administered twice weekly for 15 weeks (reference value: 0.2 g/dl). It is filed as functional.
Assay [14] has as its system Homo sapiens. Briefly: Antianemic activity in chronic kidney disease patient assessed as increase in hemoglobin level at 625 mg, po administered twice weekly for 15 weeks measured after 4 weeks relative to control. In kind it is functional.
The subject of assay [15] is Homo sapiens. Briefly: Antianemic activity in chronic kidney disease patient assessed as increase in hemoglobin level at 6 to 20 mg/kg administered twice weekly for 4 weeks relative to control. In kind it is functional. To be noted: dose mg/kg 6-20.
Assay [16] has as its system Homo sapiens. Briefly: Increase in plasma EPO level in nephric end stage renal disease patient at 20 mg/kg, po administered for 7 days relative to control. In kind it is functional.
The test system of assay [17] is Homo sapiens. Put plainly: Antianemic activity in chronic kidney disease patient assessed as increase in hemoglobin level at 20 mg/kg, po administered 3 times per week for 4 weeks (reference value: 0.35 g/dL). In kind it is functional.
Assay [18] addresses T1, Egl nine homolog 1. Put plainly: Inhibition of HIF-PH2 (unknown origin) expressed in insect Hi5 cells using [methoxycoumarin]-DLDLEALAPYIPADDDFQL-amide as substrate at 22 uM by [14]CO2 capture assay relative to control. The note with it: BTI-TN-5B1-4.
Target sequence in this assay (Q9GZT9 2-426 limits assumed): as the sequence (Q9GZT9 2-426 limits assumed) above
The nature of assay [19]: Inhibition of prolyl hydroxylase (unknown origin) using biotin-labeled DLDLEMLAPYIPMDDDFQL as substrate after 60 mins by FRET assay. Also noted: species or system Homo sapiens.
For assay [20], the target named is T2, Prolyl hydroxylase EGLN3. Put plainly: Inhibition of full length human recombinant EGLN-3 using DLDLEALAPYIPADDDFQL as substrate after 20 mins by mass spectrophotometric analysis.
In assay [21] the target is T1, Egl nine homolog 1. Put plainly: Inhibition of human recombinant EGLN-1 using DLDLEALAPYIPADDDFQL as substrate after 20 mins by mass spectrophotometric analysis.
Target sequence in this assay (Q9GZT9 whole entry): as the sequence (Q9GZT9 whole entry) above
The test system of the next assay is Mus musculus. Briefly: Suppression of TNBS-induced colitis in mouse assessed as increase in hematocrit at 1 to 5 mg/kg, po after 7 days relative to control. It is filed as functional. The note with it: dose mg/kg 1-5.
The target in assay [22] is T1, Egl nine homolog 1. Put plainly: Inhibition of PHD2 in HEK293 cells assessed as VEGF release by immunoassay. In kind it is cell-based.
Target sequence in this assay (Q9GZT9 whole entry): as above

For orientation: pIC50 means the negative decadic logarithm of the IC50, by convention in mol/L. As usually defined, the pEC50 is the negative decadic logarithm of the EC50, by convention in mol/L. The term inhibition denotes the drop in the measured response relative to a control, in per cent.

pEC50, pIC50: −log10 of the molar value.

T2 sequence (Q9H6Z9 whole entry): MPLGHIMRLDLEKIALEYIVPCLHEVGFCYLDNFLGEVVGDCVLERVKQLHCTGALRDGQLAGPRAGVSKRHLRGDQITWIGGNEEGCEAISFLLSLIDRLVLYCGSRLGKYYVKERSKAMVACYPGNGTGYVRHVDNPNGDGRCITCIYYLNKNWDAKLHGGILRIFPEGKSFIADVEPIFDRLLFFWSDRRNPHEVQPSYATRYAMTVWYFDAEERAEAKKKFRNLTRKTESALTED

As for `O=C(O)CNC(=O)c1c(O)c2c(n(Cc3ccc(C(F)(F)F)cc3)c1=O)CSC2`, at Egl nine homolog 1 [1], the pIC50 is greater than 8.00. `O=C(O)CNC(=O)c1c(O)c(C(=O)NCc2ccccc2)cn(Cc2ccccc2)c1=O`: the pEC50 on Prolyl hydroxylase EGLN3 [2] is 9.00. For `O=C(O)CNC(=O)c1nc(-c2cn(Cc3ccccc3)nn2)c2snc(-c3ccc(Cl)cc3)c2c1O`, the inhibition against Egl nine homolog 1 [3] turned out to be 100%. Consider `O=C(O)CNC(=O)c1c(O)ccc2cc(-c3ccccc3)cnc12`, for which the pIC50 on Prolyl hydroxylase EGLN3 [4] is 9.00.

With `O=C(O)c1cnn(-c2nc(N3CCCC3)c3cc(Oc4ccc(Cl)cc4)ccc3n2)c1`, in the assay on Hep 3B2, the Activity was 96%. `CC(C)(C)c1ccc(Cn2c(-c3c(Cl)cccc3Cl)nc(O)c(C(=O)NCC(=O)O)c2=O)cc1` had a negative-log IC50 (pIC50) at Prolyl hydroxylase EGLN3 [5] of 9.10. Also, the negative logarithm of the EC50 (pEC50) at Prolyl hydroxylase EGLN3 [2] was 6.40. As to `O=C(O)CCC(=O)C1=C(O)c2ccc(Cl)cc2C2(CCOCC2)C1=O`, the negative-log IC50 (pIC50) at Egl nine homolog 1 [6] was greater than 7.00.

In the case of `O=C(O)CNC(=O)c1nc(Cl)c2ccccc2c1O`, the Activity is 1.4 g/dL in the assay on Homo sapiens [7]; 50% with Homo sapiens [9]; 76% with Homo sapiens [11]; 1.1 g/dL in the assay on Homo sapiens [12]; 2.4 g/dL in the assay with Homo sapiens [13]; 60% in the assay with Homo sapiens [14]. Also, the Activity in the assay with Homo sapiens [15] was determined as 1.3 g/dL; with Homo sapiens [17], 1.9 g/dL. Also, the “fold change (FC)” value with Homo sapiens [8] is on record as 14.5; with Homo sapiens [10] it was 12.7; in the assay on Homo sapiens [16], 30.8. `O=C(O)CNC(=O)C1=C(O)c2ccc(Cl)cc2C2(CCOCC2)C1=O` had a pIC50 against Egl nine homolog 1 [6] greater than 7.00. Regarding `O=C(Cc1ccc2ccccc2c1)Nc1cnc(-n2cccn2)nc1O`, the negative-log IC50 (pIC50) at Egl nine homolog 1 [1] was 9.15. At Prolyl hydroxylase EGLN3 [4], `COc1ccc(-n2c(=O)[nH]c3cc(C(=O)NCc4ccc(Cl)cc4)ncc3c2=O)nc1OC` showed a negative-log IC50 (pIC50) of 9.00. Moreover, the negative logarithm of the EC50 (pEC50) at Prolyl hydroxylase EGLN3 [2] was 6.00. In turn, `O=C(O)CNC(=O)c1c(O)c2c(Cl)c(Cl)c(Cl)n2n(Cc2ccccc2)c1=O` yielded an inhibition against Egl nine homolog 1 [18] of 99%. On to `O=c1c(-c2cccnc2)c[nH]n1-c1cc(N2CCCCC2)ncn1`, for which the negative-log IC50 (pIC50) in assay [19] is greater than 4.52. Take `N#Cc1cn(-c2c[nH]n(-c3cc(N4CC(F)(F)C4)ncn3)c2=O)nn1`: in [19], the negative logarithm of the IC50 (pIC50) is 7.15. Take `CC(C)(C)c1ccc(Cn2nc(-c3ccc(Cl)cc3)c(O)c(C(=O)NCC(=O)O)c2=O)cc1`: the negative-log IC50 (pIC50) against Prolyl hydroxylase EGLN3 [5] is 9.10. For the same molecule, the negative-log EC50 (pEC50) on Prolyl hydroxylase EGLN3 [2] is 6.40.

On Egl nine homolog 1 [6], `O=C(O)CNC(=O)C1=C(O)c2ccccc2C1=O` showed a negative-log IC50 (pIC50) of 8.52. As to `O=C(O)CNC(=O)c1ccc(-c2ccc3ccccc3c2)cn1`, the pIC50 at Prolyl hydroxylase EGLN3 [20] and at Egl nine homolog 1 [21] was less than 3.30 throughout. As to `O=C(O)CNC(=O)c1c(O)c(C(=O)NCc2ccccc2)c(O)n(Cc2ccccc2)c1=O`, the negative-log EC50 (pEC50) at Prolyl hydroxylase EGLN3 [2] is 9.00. Consider `N#Cc1ccccc1Cn1c(=O)c(C(=O)NCC(=O)O)c(O)n(Cc2ccccc2)c1=O`, for which the negative-log IC50 (pIC50) against Prolyl hydroxylase EGLN3 [5] was 9.10. In addition, the negative-log EC50 (pEC50) at Prolyl hydroxylase EGLN3 [2] is 6.40. As for `O=C(O)CNC(=O)c1c(O)c2c(n(Cc3ccc(C(F)(F)F)cc3)c1=O)CN(C(=O)C1CC1)C2`, the negative-log IC50 (pIC50) at Egl nine homolog 1 [1] was greater than 8.00. On to `CC(C)(C)OC(=O)N1CCN(Cc2ccn(Cc3ccc(Cl)cc3)c(=O)c2O)CC1` [IZILENDUSTAT], for which, in the assay with Mus musculus, the Activity was 2%. Moreover, the pEC50 at Egl nine homolog 1 [22] was 4.77. On Prolyl hydroxylase EGLN3 [4], `COc1ccc(-n2c(=S)[nH]c3sc(C(=O)NCc4ccc(Cl)cc4)c(C)c3c2=O)nc1OC` had a negative logarithm of the IC50 (pIC50) of 9.00. Besides, the pEC50 at Prolyl hydroxylase EGLN3 [2] was 6.00.
